# In publication PMC12687453, “Plasma membrane folate transport in fungi and plants is mediated by members of the oligopeptide transporter (OPT) family” (Biochemical Journal, 2025):
# How the values were obtained:
# Test in all cases: LC-MS/MS cellular uptake versus vector control
# Format in all cases: cell-based
# AfOPTH = target: T1, AfOPTH (Aspergillus fumigatus, UniProt Q4WAD5); conditions: 100 uM folinic acid, opt1-delta cells, pH 5.5, 30 °C, 5 min
# T1 construct: gene AFUA_7G00910; plasmid-expressed in S. cerevisiae opt1-delta cells (MET25 promoter; TEF)
# T1 sequence (Q4WAD5 1-757): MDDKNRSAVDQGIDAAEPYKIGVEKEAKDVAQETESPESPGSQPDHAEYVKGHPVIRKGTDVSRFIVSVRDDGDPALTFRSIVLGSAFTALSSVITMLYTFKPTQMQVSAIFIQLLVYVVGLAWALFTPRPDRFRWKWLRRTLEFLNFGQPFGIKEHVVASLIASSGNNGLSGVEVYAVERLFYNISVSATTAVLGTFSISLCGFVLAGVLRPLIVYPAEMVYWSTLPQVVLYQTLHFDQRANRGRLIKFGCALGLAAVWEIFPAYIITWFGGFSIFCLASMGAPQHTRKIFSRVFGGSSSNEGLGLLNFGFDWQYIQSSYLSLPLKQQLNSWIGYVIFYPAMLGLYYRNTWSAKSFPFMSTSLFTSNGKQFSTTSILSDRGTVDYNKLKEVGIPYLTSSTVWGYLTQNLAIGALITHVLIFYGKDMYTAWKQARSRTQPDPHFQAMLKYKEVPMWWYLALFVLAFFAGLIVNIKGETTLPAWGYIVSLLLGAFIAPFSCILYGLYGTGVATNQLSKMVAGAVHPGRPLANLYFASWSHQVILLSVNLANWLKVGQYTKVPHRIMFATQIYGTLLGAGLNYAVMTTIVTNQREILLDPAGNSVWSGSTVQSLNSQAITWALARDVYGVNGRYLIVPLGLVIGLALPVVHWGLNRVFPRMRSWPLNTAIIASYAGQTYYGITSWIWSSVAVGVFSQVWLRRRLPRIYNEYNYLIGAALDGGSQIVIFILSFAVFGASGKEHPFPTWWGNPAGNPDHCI
# AtOPT4 = target: T2, AtOPT4 (Arabidopsis thaliana, UniProt Q9FME8); conditions: 100 uM folinic acid, opt1-delta cells, pH 5.5, 30 °C, 5 min
# T2 construct: gene OPT4; cDNA from Arabidopsis Biological Resource Center, TEF promoter plasmid, in S. cerevisiae opt1-delta cells
# T2 sequence (Q9FME8 2-729): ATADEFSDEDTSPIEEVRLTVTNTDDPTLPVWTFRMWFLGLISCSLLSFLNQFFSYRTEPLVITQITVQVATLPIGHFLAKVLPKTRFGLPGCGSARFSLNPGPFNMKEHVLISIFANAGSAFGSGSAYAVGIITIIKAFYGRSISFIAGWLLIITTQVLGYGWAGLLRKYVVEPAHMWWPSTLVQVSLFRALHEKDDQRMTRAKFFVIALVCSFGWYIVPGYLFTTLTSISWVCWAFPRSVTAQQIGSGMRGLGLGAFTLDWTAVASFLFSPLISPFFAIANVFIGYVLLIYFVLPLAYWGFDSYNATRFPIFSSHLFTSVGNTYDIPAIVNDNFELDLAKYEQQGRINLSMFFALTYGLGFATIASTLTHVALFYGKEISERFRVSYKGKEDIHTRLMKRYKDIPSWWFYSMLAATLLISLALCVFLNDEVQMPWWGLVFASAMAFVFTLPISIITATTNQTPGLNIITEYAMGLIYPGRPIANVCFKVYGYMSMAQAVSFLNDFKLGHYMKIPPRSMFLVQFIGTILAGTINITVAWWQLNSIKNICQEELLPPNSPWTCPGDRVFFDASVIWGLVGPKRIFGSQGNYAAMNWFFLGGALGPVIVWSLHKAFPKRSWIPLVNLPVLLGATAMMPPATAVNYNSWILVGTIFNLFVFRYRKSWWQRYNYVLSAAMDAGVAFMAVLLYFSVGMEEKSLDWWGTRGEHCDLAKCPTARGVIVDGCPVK
# AtOPT6 = target: T3, AtOPT6 (Arabidopsis thaliana, UniProt Q9T095); conditions: 100 uM folinic acid, opt1-delta cells, pH 5.5, 30 °C, 5 min
# T3 construct: gene OPT6; cDNA from Arabidopsis Biological Resource Center, TEF promoter plasmid, in S. cerevisiae opt1-delta cells
# T3 sequence (Q9T095 1-736): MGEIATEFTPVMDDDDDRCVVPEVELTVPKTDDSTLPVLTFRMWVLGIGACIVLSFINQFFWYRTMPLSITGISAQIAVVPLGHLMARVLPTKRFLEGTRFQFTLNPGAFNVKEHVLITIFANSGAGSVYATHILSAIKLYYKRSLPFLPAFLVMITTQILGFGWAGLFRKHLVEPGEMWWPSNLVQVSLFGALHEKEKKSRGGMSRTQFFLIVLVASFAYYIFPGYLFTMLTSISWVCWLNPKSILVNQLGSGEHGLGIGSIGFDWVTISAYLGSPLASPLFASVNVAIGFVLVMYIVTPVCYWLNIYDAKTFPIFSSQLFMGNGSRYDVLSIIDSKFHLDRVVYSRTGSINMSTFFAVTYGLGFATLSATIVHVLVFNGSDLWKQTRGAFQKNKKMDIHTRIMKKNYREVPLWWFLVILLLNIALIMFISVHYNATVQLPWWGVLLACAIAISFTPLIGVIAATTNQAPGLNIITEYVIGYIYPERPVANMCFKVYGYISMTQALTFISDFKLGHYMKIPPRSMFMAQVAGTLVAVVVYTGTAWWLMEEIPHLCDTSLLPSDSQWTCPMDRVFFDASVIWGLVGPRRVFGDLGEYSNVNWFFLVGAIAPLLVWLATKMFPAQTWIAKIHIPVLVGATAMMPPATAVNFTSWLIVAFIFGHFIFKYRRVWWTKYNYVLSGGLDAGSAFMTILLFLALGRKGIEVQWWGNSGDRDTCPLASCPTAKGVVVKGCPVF
# Opt1p/Hgt1p (ScOPT1) = target: T4, Opt1p/Hgt1p (ScOPT1) (Saccharomyces cerevisiae, UniProt P40897); conditions: 100 uM folinic acid, opt1-delta cells, pH 5.5, 30 °C; time course
# T4 construct: gene OPT1; full-length plasma membrane transporter, TEF promoter plasmid, in S. cerevisiae opt1-delta cells
# T4 sequence (P40897 1-799): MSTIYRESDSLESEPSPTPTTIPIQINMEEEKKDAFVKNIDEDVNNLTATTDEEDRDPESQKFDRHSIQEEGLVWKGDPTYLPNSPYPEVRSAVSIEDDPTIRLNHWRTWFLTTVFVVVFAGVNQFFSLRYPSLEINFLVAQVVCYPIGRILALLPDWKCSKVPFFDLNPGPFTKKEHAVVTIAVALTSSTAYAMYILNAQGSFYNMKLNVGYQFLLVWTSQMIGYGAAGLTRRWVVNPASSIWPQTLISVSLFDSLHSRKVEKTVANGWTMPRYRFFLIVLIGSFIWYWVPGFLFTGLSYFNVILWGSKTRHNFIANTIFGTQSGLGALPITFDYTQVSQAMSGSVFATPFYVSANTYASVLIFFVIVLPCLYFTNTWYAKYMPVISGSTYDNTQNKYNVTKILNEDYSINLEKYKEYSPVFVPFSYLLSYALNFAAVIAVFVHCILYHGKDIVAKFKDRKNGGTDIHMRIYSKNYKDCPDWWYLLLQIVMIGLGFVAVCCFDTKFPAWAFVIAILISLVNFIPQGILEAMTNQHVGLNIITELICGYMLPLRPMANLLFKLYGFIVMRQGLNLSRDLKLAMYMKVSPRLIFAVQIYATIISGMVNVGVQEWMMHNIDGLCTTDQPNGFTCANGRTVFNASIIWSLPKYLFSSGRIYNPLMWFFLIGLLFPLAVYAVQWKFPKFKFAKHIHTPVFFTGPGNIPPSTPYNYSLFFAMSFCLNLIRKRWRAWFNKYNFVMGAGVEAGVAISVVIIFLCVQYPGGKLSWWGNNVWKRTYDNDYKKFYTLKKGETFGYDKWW
# AtOPT2 = target: T5, AtOPT2 (Arabidopsis thaliana, UniProt O04514); conditions: 100 uM folinic acid, opt1-delta cells, pH 5.5, 30 °C, 5 min
# T5 construct: gene OPT2; cDNA from Arabidopsis Biological Resource Center, TEF promoter plasmid, in S. cerevisiae opt1-delta cells
# T5 sequence (O04514 1-734): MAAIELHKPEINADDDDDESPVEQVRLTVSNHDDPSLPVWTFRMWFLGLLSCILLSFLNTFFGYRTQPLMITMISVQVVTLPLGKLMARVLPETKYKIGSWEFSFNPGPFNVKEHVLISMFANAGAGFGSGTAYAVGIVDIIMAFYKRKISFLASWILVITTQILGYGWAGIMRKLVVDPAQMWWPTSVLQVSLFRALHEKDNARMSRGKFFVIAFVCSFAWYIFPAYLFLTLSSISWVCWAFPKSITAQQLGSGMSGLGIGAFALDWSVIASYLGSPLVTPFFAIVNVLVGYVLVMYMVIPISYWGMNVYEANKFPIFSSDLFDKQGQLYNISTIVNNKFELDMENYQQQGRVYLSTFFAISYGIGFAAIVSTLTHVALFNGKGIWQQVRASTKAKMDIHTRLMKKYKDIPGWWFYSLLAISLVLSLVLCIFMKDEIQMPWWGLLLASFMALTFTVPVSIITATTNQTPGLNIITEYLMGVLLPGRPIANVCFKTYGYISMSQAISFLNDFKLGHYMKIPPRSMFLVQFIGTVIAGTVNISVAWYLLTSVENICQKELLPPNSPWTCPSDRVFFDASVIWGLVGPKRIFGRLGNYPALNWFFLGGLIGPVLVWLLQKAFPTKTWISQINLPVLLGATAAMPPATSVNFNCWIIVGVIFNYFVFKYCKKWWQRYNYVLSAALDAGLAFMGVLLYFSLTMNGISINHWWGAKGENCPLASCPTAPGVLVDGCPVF
# CaOPT1 = target: T6, CaOPT1 (Candida albicans, UniProt Q5YBA3); conditions: 100 uM folinic acid, opt1-delta cells, pH 5.5, 30 °C, 5 min
# T6 construct: gene OPT1; TEF promoter plasmid, expressed in S. cerevisiae opt1-delta cells
# T6 sequence (Q5YBA3 1-783): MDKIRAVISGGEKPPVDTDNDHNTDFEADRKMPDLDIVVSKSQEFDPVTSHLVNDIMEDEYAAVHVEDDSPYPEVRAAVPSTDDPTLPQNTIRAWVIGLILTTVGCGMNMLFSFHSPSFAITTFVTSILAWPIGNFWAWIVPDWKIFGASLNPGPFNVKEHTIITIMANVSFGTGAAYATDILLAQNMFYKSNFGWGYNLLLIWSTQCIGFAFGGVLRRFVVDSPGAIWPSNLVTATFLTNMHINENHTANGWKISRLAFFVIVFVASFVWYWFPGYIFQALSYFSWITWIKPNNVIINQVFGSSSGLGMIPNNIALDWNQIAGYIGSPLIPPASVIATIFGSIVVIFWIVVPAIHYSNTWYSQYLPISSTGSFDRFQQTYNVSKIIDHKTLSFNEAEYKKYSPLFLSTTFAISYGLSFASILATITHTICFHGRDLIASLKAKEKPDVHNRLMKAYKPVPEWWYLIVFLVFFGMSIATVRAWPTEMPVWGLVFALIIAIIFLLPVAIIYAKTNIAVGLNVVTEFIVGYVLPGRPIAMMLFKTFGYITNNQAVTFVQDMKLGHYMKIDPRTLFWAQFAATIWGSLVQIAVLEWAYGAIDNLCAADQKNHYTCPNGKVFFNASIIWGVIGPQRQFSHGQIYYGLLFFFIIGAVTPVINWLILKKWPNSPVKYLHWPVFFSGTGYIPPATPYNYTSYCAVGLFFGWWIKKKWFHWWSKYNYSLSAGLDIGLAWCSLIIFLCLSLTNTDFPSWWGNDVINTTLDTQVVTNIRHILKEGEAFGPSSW
structure (smiles),measurement,setting,value
Nc1nc2c(c(=O)[nH]1)N(C=O)[C@@H](CNc1ccc(C(=O)N[C@@H](CCC(=O)O)C(=O)O)cc1)CN2 [folinic acid],LC-MS/MS cellular uptake versus vector control,AfOPTH,carried out uptake experiments with AfOPTH to confirm its ability to transport folates
same,LC-MS/MS cellular uptake versus vector control,AtOPT4,AtOPT2 and AtOPT4 and even AtOPT6 contribute to folate transport
same,LC-MS/MS cellular uptake versus vector control,AtOPT6,AtOPT2 and AtOPT4 and even AtOPT6 contribute to folate transport
same,LC-MS/MS cellular uptake versus vector control,Opt1p/Hgt1p (ScOPT1),a rapid increase in intracellular folinic acid was observed in the cells bearing TEF-OPT1 plasmid
same,LC-MS/MS cellular uptake versus vector control,AtOPT2,AtOPT2 and AtOPT4 and even AtOPT6 contribute to folate transport
same,LC-MS/MS cellular uptake versus vector control,CaOPT1,confirmed the ability of C. albicans CaOPT1 to transport folate by uptake assays
